# Test results published in publication PMC8617031, “Development of a BCL-xL and BCL-2 dual degrader with improved anti-leukemic activity,” (Nature Communications, 2021).
# Where “and” joins values, the source holds several entries; their conditions need not be identical. Equal values may be shown once. Read-outs that look alike come from different tables or passages of the source.
# Legend:
# Kasumi-1 cells = test: Viability (MTS) of Kasumi-1 AML cells; assay type: cell-based, human; settings: Fig. 7c; for Luminescence (raw plate reading): Kasumi, 24h
# His-tagged BCL-xL = target: T1, His-tagged BCL-xL (Homo sapiens, UniProt Q07817); test: AlphaScreen competitive binary binding, BCL-xL (biotin-BAD peptide)
# T1 construct: purchased Sigma-Aldrich SRP0187
# T1 sequence (Q07817 whole entry): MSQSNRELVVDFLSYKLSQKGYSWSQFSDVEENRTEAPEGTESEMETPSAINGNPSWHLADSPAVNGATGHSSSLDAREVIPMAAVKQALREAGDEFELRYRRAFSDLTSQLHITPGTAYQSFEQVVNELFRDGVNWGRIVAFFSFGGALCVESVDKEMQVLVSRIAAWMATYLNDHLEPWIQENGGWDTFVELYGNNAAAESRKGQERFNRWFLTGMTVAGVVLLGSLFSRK
# Description: The reagents were diluted in a buffer containing 250 mM HEPES pH 7.5, 1 M NaCl, 1% BSA, and 0.05% Tween-80. His-tagged BCL-xL (0.5 nM, Cat. No. SRP0187, Sigma-Aldrich) or BCL-2 (1 nM, Cat. No. SRP0186, Sigma-Aldrich) were incubated with serial diluted 753a or 753b and 2 nM biotin-tagged BAD (biotin-[…] amino-terminal, AnaSpec, for BCL-xL) or 10 nM BIM peptides (biotin-[…] N-terminal, AnaSpec, for BCL-2) to a final volume of 40 µl in a 96-well PCR plate. […] After incubation for 2 h, 5 µl 6× His-acceptor beads (Cat. No. AL128M, PerkinElmer) were added to each well at 20 µg/ml final concentration and incubated for 1 h. Then 5 µl streptavidin-donor beads were added (Cat. No. 6760002, PerkinElmer) to each well at 20 µg/ml final concentration and incubated for 45 min. At the end of the incubation period, 17 µl of each sample was transferred in adjacent wells of 384-well proxy plate (Cat. No. 6008280, PerkinElmer). The plate was scanned using the Alpha program on Biotek’s Synergy Neo2 multimode plate reader. The inhibition constant (Ki) was calculated using the non-linear regression, one site, competitive binding, Fit Ki function on GraphPad Prism 9 software, based on experimentally determined dissociation constant (Kd) for each protein–peptide pair.
compound,measurement,setting,value
Cc1ncsc1-c1ccc([C@H](C)NC(=O)[C@@H]2C[C@@H](O)CN2C(=O)[C@@H](NC(=O)CCCCCC(=O)N2CCN(CC[C@H](CSc3ccccc3)Nc3ccc(S(=O)(=O)NC(=O)c4ccc(N5CCN(CC6=C(c7ccc(Cl)cc7)CCC(C)(C)C6)CC5)cc4)cc3S(=O)(=O)C(F)(F)F)CC2)C(C)(C)C)cc1 [DT2216],IC50,"Kasumi-1 cells; Homo sapiens, Kasumi 1, 72 h, read-out: IC50, viability of Kasumi-1 cells",1150 nM
same,Luminescence (raw plate reading),Kasumi-1 cells; 2um (plate column 11),404633 and 365594 and 354853 and 362278
same,Luminescence (raw plate reading),Kasumi-1 cells; 4um (plate column 12),138608 and 119804 and 124492 and 119916
same,IC50,His-tagged BCL-xL; BCL-xL Rep-1,120 nM
same,Ki,His-tagged BCL-xL; BCL-xL Rep-1,5.4 nM
same,Alpha signal normalised to Maximum/Minimum (inhibition),"His-tagged BCL-xL; BCL-xL Rep-1, 0.000305176 uM, 0.000305176 µM",20.1617
same,inhibition at 0.000305176 µM,"His-tagged BCL-xL; BCL-xL Rep-1, 0.000305176 uM, read-out: Alpha signal normalised to Maximum/Minimum (inhibition)",18.1%
same,Alpha signal normalised to Maximum/Minimum (inhibition),"His-tagged BCL-xL; BCL-xL Rep-1, 0.0012207 uM, 0.0012207 µM",17.8409
same,inhibition at 0.0012207 µM,"His-tagged BCL-xL; BCL-xL Rep-1, 0.0012207 uM, read-out: Alpha signal normalised to Maximum/Minimum (inhibition)",21.3%
same,Alpha signal normalised to Maximum/Minimum (inhibition),"His-tagged BCL-xL; BCL-xL Rep-1, 0.00488281 uM, 0.00488281 µM",23.949
same,inhibition at 0.00488281 µM,"His-tagged BCL-xL; BCL-xL Rep-1, 0.00488281 uM, read-out: Alpha signal normalised to Maximum/Minimum (inhibition)",23.9%
same,Alpha signal normalised to Maximum/Minimum (inhibition),"His-tagged BCL-xL; BCL-xL Rep-1, 0.0195312 uM, 0.0195312 µM",38.2381
same,inhibition at 0.0195312 µM,"His-tagged BCL-xL; BCL-xL Rep-1, 0.0195312 uM, read-out: Alpha signal normalised to Maximum/Minimum (inhibition)",39%
same,Alpha signal normalised to Maximum/Minimum (inhibition),"His-tagged BCL-xL; BCL-xL Rep-1, 0.078125 uM, 0.078125 µM",43.5761
same,inhibition at 0.078125 µM,"His-tagged BCL-xL; BCL-xL Rep-1, 0.078125 uM, read-out: Alpha signal normalised to Maximum/Minimum (inhibition)",42.3%
same,Alpha signal normalised to Maximum/Minimum (inhibition),"His-tagged BCL-xL; BCL-xL Rep-1, 0.3125 uM, 0.3125 µM",88.5079
same,inhibition at 0.3125 µM,"His-tagged BCL-xL; BCL-xL Rep-1, 0.3125 uM, read-out: Alpha signal normalised to Maximum/Minimum (inhibition)",85.7%
same,Alpha signal normalised to Maximum/Minimum (inhibition),"His-tagged BCL-xL; BCL-xL Rep-1, 1.25 uM, 1.25 µM",97.7177
same,inhibition at 1.25 µM,"His-tagged BCL-xL; BCL-xL Rep-1, 1.25 uM, read-out: Alpha signal normalised to Maximum/Minimum (inhibition)",96.9%
same,Alpha signal normalised to Maximum/Minimum (inhibition),"His-tagged BCL-xL; BCL-xL Rep-1, 5 uM, 5 µM",99.5511
same,inhibition at 5 µM,"His-tagged BCL-xL; BCL-xL Rep-1, 5 uM, read-out: Alpha signal normalised to Maximum/Minimum (inhibition)",99.5%
same,Alpha signal (raw counts),"His-tagged BCL-xL; BCL-xL Rep-1, plate row B, 5 uM",27230 and 26015
same,Alpha signal (raw counts),"His-tagged BCL-xL; BCL-xL Rep-1, plate row C, 1.25 uM",64394 and 52279
same,Alpha signal (raw counts),"His-tagged BCL-xL; BCL-xL Rep-1, plate row D, 0.3125 uM",224421 and 184214
same,Alpha signal (raw counts),"His-tagged BCL-xL; BCL-xL Rep-1, plate row E, 0.078125 uM",846185 and 827887
same,Alpha signal (raw counts),"His-tagged BCL-xL; BCL-xL Rep-1, plate row F, 0.0195312 uM",894074 and 904357
same,Alpha signal (raw counts),"His-tagged BCL-xL; BCL-xL Rep-1, plate row G, 0.00488281 uM",1110366 and 1109056
same,Alpha signal (raw counts),"His-tagged BCL-xL; BCL-xL Rep-1, plate row H, 0.0012207 uM",1147150 and 1196559
same,Alpha signal (raw counts),"His-tagged BCL-xL; BCL-xL Rep-1, plate row I, 0.000305176 uM",1192890 and 1163311
same,Alpha signal (raw counts),"His-tagged BCL-xL; BCL-xL Rep-1, plate row J, 7.62939e-5 uM",1153277 and 1055277
same,Alpha signal (raw counts),"His-tagged BCL-xL; BCL-xL Rep-1, plate row K, 1.90735e-5 uM",1140776 and 1328684
same,Alpha signal (raw counts),"His-tagged BCL-xL; BCL-xL Rep-2, 7.62939e-5 uM",1377571 and 1338961
same,Alpha signal normalised to Maximum/Minimum (inhibition),"His-tagged BCL-xL; BCL-xL Rep-2, 0.0012207 uM, 0.0012207 µM",12.2985
same,inhibition at 0.0012207 µM,"His-tagged BCL-xL; BCL-xL Rep-2, 0.0012207 uM, read-out: Alpha signal normalised to Maximum/Minimum (inhibition)",16.2%
same,Alpha signal normalised to Maximum/Minimum (inhibition),"His-tagged BCL-xL; BCL-xL Rep-2, 0.00488281 uM, 0.00488281 µM",25.1578
same,inhibition at 0.00488281 µM,"His-tagged BCL-xL; BCL-xL Rep-2, 0.00488281 uM, read-out: Alpha signal normalised to Maximum/Minimum (inhibition)",22.8%
same,Alpha signal normalised to Maximum/Minimum (inhibition),"His-tagged BCL-xL; BCL-xL Rep-2, 0.0195312 uM, 0.0195312 µM",25.456
same,inhibition at 0.0195312 µM,"His-tagged BCL-xL; BCL-xL Rep-2, 0.0195312 uM, read-out: Alpha signal normalised to Maximum/Minimum (inhibition)",35.3%
same,Alpha signal normalised to Maximum/Minimum (inhibition),"His-tagged BCL-xL; BCL-xL Rep-2, 0.078125 uM, 0.078125 µM",57.5037
same,inhibition at 0.078125 µM,"His-tagged BCL-xL; BCL-xL Rep-2, 0.078125 uM, read-out: Alpha signal normalised to Maximum/Minimum (inhibition)",60.5%
same,Alpha signal normalised to Maximum/Minimum (inhibition),"His-tagged BCL-xL; BCL-xL Rep-2, 0.3125 uM, 0.3125 µM",86.3518
same,inhibition at 0.3125 µM,"His-tagged BCL-xL; BCL-xL Rep-2, 0.3125 uM, read-out: Alpha signal normalised to Maximum/Minimum (inhibition)",86.5%
same,Alpha signal normalised to Maximum/Minimum (inhibition),"His-tagged BCL-xL; BCL-xL Rep-2, 1.25 uM, 1.25 µM",97.814
same,inhibition at 1.25 µM,"His-tagged BCL-xL; BCL-xL Rep-2, 1.25 uM, read-out: Alpha signal normalised to Maximum/Minimum (inhibition)",98.7%
same,Alpha signal normalised to Maximum/Minimum (inhibition),"His-tagged BCL-xL; BCL-xL Rep-2, 5 uM, 5 µM",100.647
same,inhibition at 5 µM,"His-tagged BCL-xL; BCL-xL Rep-2, 5 uM, read-out: Alpha signal normalised to Maximum/Minimum (inhibition)",100%
same,Alpha signal (raw counts),"His-tagged BCL-xL; BCL-xL Rep-2, plate row B, 5 uM",20174 and 14292
same,Alpha signal (raw counts),"His-tagged BCL-xL; BCL-xL Rep-2, plate row C, 1.25 uM",40445 and 53326
same,Alpha signal (raw counts),"His-tagged BCL-xL; BCL-xL Rep-2, plate row D, 0.3125 uM",209031 and 211248
same,Alpha signal (raw counts),"His-tagged BCL-xL; BCL-xL Rep-2, plate row E, 0.078125 uM",567789 and 608705
same,Alpha signal (raw counts),"His-tagged BCL-xL; BCL-xL Rep-2, plate row F, 0.0195312 uM",914961 and 1050246
same,Alpha signal (raw counts),"His-tagged BCL-xL; BCL-xL Rep-2, plate row G, 0.00488281 uM",1086158 and 1054354
same,Alpha signal (raw counts),"His-tagged BCL-xL; BCL-xL Rep-2, plate row H, 0.0012207 uM",1178429 and 1231525
same,Alpha signal (raw counts),"His-tagged BCL-xL; BCL-xL Rep-2, plate row I, 0.000305176 uM",1409371 and 1266044
same,Alpha signal (raw counts),"His-tagged BCL-xL; BCL-xL Rep-2, plate row K, 1.90735e-5 uM",1319490 and 1464517
same,Ki,"His-tagged BCL-xL; BCL-xL, mean of the two replicate values (line without label)",3.96 nM
